Test system: Spontaneously hypertensive rats
Experiment: Blood pressure and heart rate by tail-cuff after chronic local drug delivery to the renal capsule via implanted minipumps
[1] = local delivery to renal capsule by minipump, tail-cuff, over time

Clc1cccc(Cl)c1N=C1NCCN1 [clonidine]
dosage resulting in the blood-pressure effect, compared with oral dosage expected for a similar result (local delivery to renal capsule): significantly less than an oral dosage
heart rate (side effect) (local delivery to renal capsule by minipump): not reduced
diastolic blood pressure [1]: reduced
mean blood pressure [1]: reduced
systolic blood pressure [1]: reduced

From US20140221964A1, “SYSTEMS AND METHODS FOR LOCAL DRUG DELIVERY TO KIDNEYS” (priority 2011, published 2014)
